Experiment in all cases: DTP human tumour cell line panel, 48 h
Assay [1] deals with BT-549 breast.
Assay [2] relates to HS 578T breast.
In assay [3] the test system is MCF7 breast.
In assay [4] the test system is NCI-H522 lung.
Assay [5] concerns SF-539 CNS.
For assay [6], the system named is T-47D breast.
Assay [7] relates to DLD-1 colon.
Assay [8] relates to DMS 273 small cell lung.
In assay [9] the test system is HOP-18 NSCLC.
In assay [10] the test system is KM20L2 colon.

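Interpolation was linear, between the two tested concentrations surrounding the appropriate level; five concentrations were tested over 48 hours in 96-well plates. GI50 marks 50% less growth. Definition used: TGI = concentration required for complete inhibition of growth.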

Consider `NCCCCN(CCCN)C(=O)OCc1ccccc1`, for which the TGI in assay [1], in [2], in assay [3], in [4], in assay [5] and in [6] was over 100 µM throughout.

Take `Nc1c2c(nc3ccccc13)-c1ccccc1CCC2`: the TGI (as a rule, the concentration at which net growth stops) came out at 44.4 µM in assay [1]; 43.2 µM in assay [2]; 28.6 µM in assay [3]; 32.4 µM in assay [4]; 26.2 µM in assay [5]; 37.5 µM in assay [6].

`COc1cc2[nH]c(=O)[nH]c2c2c(C)c[nH]c12`: the total growth inhibition concentration (TGI) in [1], in [2], in [3], in assay [4] and in assay [6] was over 100 µM each time.

For `CO/C=C(/C(=O)OC)c1ccccc1[C@H]1C[C@@H]1c1ccc(OC)cc1`, the TGI was 46.6 µM in assay [1]; 84.5 µM in assay [2]; over 100 µM in assay [3]; 25.5 µM in [4]; 38 µM in assay [5]; 56.7 µM in assay [6].

In the case of `O=C1N2CCN=C2c2ccccc2C1(O)c1ccccc1` (stereo not drawn), the TGI in [1], in [2], in [3], in assay [5] and in [6] was over 100 µM each time.

For `CCOC(=O)n1c2ccccc2c2c(O)c(OC)c3c(c21)C(=O)NC3=O`, the TGI in assay [1], in [2], in assay [3], in assay [4], in assay [5] and in assay [6] was over 100 µM throughout.

`O=C(/C=C/c1ccco1)c1ccc(Nc2ccnc3cc(Cl)ccc23)cc1`: the GI50 (as a rule, the concentration at which growth is held to half of that of the control) in assay [1] is over 100 µM; in assay [2] it was over 100 µM; in assay [3] it was 1.46 µM; in assay [4], over 100 µM; in assay [5], 15 µM; in assay [6], 82.2 µM. The TGI is over 100 µM in assay [1]; over 100 µM in [2]; 4.55 µM in assay [3]; over 100 µM in [4]; over 100 µM in [5]; over 100 µM in assay [6].

With `O=C1CCCc2ccc3c(c21)CC1(Cc2cc4c(cc2C1)CCCC4)C3`, the TGI is 72.6 µM in assay [1]; 81.4 µM in assay [2]; 56.7 µM in assay [3]; 35.5 µM in [4]; 48.7 µM in [5]; 23.2 µM in assay [6].

Regarding `CC(C)=CCC[C@@H](C)c1c(O)c(O)c(C)c2nc3ccccc3nc12`, the TGI worked out at 17.1 µM in assay [1]; 8.37 µM in assay [2]; 13.4 µM in assay [3]; 6.71 µM in assay [5]; 10.6 µM in assay [6].

Turning to `CCCCC(=O)Nc1ccc2cc(C(=O)OC)c(=O)[nH]c2n1`, the TGI in [1], in assay [3], in assay [4], in [5] and in [6] was over 100 µM in each case.

Take `CN(CCN(C)Cc1ccc(Cl)c(Cl)c1)CCN1CCCC1`: the TGI in assay [1] was over 100 µM; in [2] it was over 45 µM; in [3] it was over 85.1 µM; in assay [4], 46.9 µM; in [5], over 59.7 µM; in [6] it was over 100 µM.

Take `O=c1[nH]nc(Nc2ccccc2)c2nnn(Cc3ccccc3)c12`: the TGI in assay [1] was over 100 µM; in assay [2] it was 90.4 µM; in assay [3] it was over 100 µM; in assay [4], over 100 µM; in assay [5] it was over 100 µM; in [6] it was over 100 µM.

Regarding `CC12CCC3=C(CSC4=C3CSc3ccccc34)C1=CCCC2=O` (stereo not drawn), the TGI in assay [7], in assay [8], in [9], in assay [10], in assay [4] and in assay [5] was over 100 µM each time.

For the compound `Cc1cc2nc(N)n[n+]([O-])c2cc1C`, the TGI in assay [1], in assay [2], in [3], in assay [4], in assay [5] and in assay [6] was over 100 µM in each case.

For `COc1cc(CNc2nc3cc(C(F)(F)F)ccc3nc2C(=O)O)cc(OC)c1OC`, the TGI is over 100 µM in assay [1]; 57 µM in assay [2]; 49.9 µM in assay [3]; over 100 µM in [4]; 37.6 µM in assay [5]; 83.8 µM in [6].

Regarding `COc1ccc(/C=N/N=C(N)N)c(C(=O)O)c1OC`, the TGI in assay [8], in assay [9], in [10], in [4] and in assay [5] was over 100 µM in each case.

Consider `CCOC(=O)C(NC(=O)Nc1ccccc1)(Nc1cccc(Cl)c1)C(F)(F)F` (stereo not drawn), for which the TGI in [1] was over 100 µM; in [2], over 78.4 µM; in assay [3] it was over 100 µM; in [4] it was over 100 µM; in assay [5], over 100 µM; in [6], over 100 µM.

Turning to `CN(C)CCNc1ccccn1`, the TGI in assay [1], in assay [2], in assay [4] and in [6] was over 100 µM each time.

Turning to `CC1CN=C(c2ccc3c(c2)Cc2cc(C4=NCC(C)N4)ccc2-3)N1` (stereo not drawn), the TGI in assay [1] is over 100 µM; in [2], over 100 µM; in assay [3], 65.3 µM; in assay [4] it was 57.4 µM; in assay [6], over 100 µM.

On to `c1ccc2c3c(c(N4CCNCC4)nc2c1)CCCC3`, for which the TGI in [1] is 26.9 µM; in assay [2], over 100 µM; in assay [3] it was 27.6 µM; in assay [4] it was 31.5 µM; in assay [5], 23.2 µM; in [6] it was 28.5 µM.

For the origin of these results see PubChem BioAssay (NCI).
